Reference: patent publication US12186359B2, “Composition containing branched-chain amino acids” (priority 2019, dated 2025)
Peptide text beside a SMILES is read from it.

Settings: mouse, in vivo
Method: The aim of the study was to compare the exposure of L-Leucine-13C6, 15N, L-Isoleucine-13C6, 15N, L-Valine-13C5, 15N in plasma after their administration alone or in association with L-Alanine or L-Alanyl-L-alanine in the mouse. Plasma samples were analyzed by dean-up and derivatization using the EZfaast™ amino acid analysis kit (Phenomenex) and analyzed by UPLC-MSMS.
CD1 mouse with body weights of 25-30 gr at the time of the treatment were used in this study, approximate age was about 4 weeks according to growth curve. The animals were originally supplied by Harlan, Italy. Once receipt from the supplier, the animals were subjected to health examinations and acceptance. The animals were housed, in a group of five, in cages suitable for the species. The animals were acclimatized to local housing conditions for approximately 5 days. The animals were routinely kept in the following environment except for short periods of time where experimental procedures dictated otherwise. The animals were housed in a single, exclusive room, air conditioned to provide a minimum of 15 air changes/hour. […] Clinical signs were monitored at regular intervals throughout the study in order to assess any reaction to treatment. […]

**Q.** For `C[C@H](N)C(=O)N[C@@H](C)C(=O)O` [L-Alanyl-L-alanine] (H-Ala-Ala-OH), which “Plasma concentrations of the labelled amino acids (AUC0-24 h), rank among groups” value is on record?
**A.** The value was “highest concentrations”.
